Our source for the photoluminescence quantum yield values is the Deep4Chem optical property database.

The data set is described as follows: photoluminescence quantum yield (fraction); solvent given as SMILES.

`COc1ccc(C2C3=C(CCCC3=O)Nc3c2c(=O)oc2ccccc32)cc1` (centres undefined) gave a photoluminescence quantum yield (in CS(C)=O) of 0.26.
Turning to `Cn1cc(-c2nc3ccccc3nc2/C=C/N2CCCC2)c2ccccc21`, the photoluminescence quantum yield runs as follows: (in C1CCCCC1) 0.126; (in C1CCOC1) 0.444; (in CC#N) 0.43; (in CC(C)=O) 0.456; (in CCO) 0.048; (in CO) 0.012. Moreover, the photoluminescence quantum yield is, setting by setting: (in CS(C)=O) 0.496; (in Cc1ccccc1) 0.375; (in ClCCl) 0.579.
In turn, `COc1ccc(C(=O)OCc2ccc3c4cccc5cccc(c6cccc2c63)c54)cc1` came in with a photoluminescence quantum yield (in CCO) of 0.93.
In the case of `CC(C)(C)c1ccc(-c2c3ccccc3c3n2[B-](F)(F)[N+]2=Cc4c5ccccc5c(-c5ccc(C(C)(C)C)cc5)n4[B-](F)(F)[N+]2=C3)cc1`, the photoluminescence quantum yield came out at 0.26 (in CC#N); 0.34 (in CCCCCC); 0.28 (in CN(C)C=O); 0.34 (in Cc1ccccc1); 0.34 (in ClCCl).
As to `CC1(C)c2ccccc2N(c2ccc(-c3ccc(C#N)cc3)cc2)c2ccccc21`, the photoluminescence quantum yield is, setting by setting: (in Cc1ccccc1) 0.178; (in N#Cc1ccc2c(c1)c1ccccc1n2-c1cccc(-n2c3ccccc3c3ccccc32)c1) 0.36.
As to `c1ccc(-c2nnc(-c3ccccc3)n2-c2ccc(N3c4ccccc4N(c4ccccc4)c4ccccc43)cc2)cc1`, the photoluminescence quantum yield runs as follows: (in Cc1ccccc1) 0.03; (in c1cc(-n2c3ccccc3c3ccccc32)cc(-n2c3ccccc3c3ccccc32)c1) 0.12.
In turn, `Cn1ncc2c3c(C#N)c4c5ccccc5n(C)c4nc3ccc21` displayed a photoluminescence quantum yield (in CCOC(C)=O) of 0.51.
In turn, `C(#Cc1ccc2c(c1)c1cc(C#Cc3ccccc3)ccc1n2-c1cc2ccccc2c2ccccc12)c1ccccc1` showed a photoluminescence quantum yield (in ClCCl) of 0.32.
The molecule `COc1ccc2c(c1)CCc1c(-c3ccccc3)c3n(c1-2)[B-](F)(F)[N+]1=c2ccc4ccccc4c2=C(c2ccccc2)C1=N3` registered a photoluminescence quantum yield (in ClC(Cl)Cl) of 0.11.
On to `Clc1cnc2nn3ccccc3c2n1`, for which the photoluminescence quantum yield (in C1CCOC1) came to 0.38.
In the case of `CCCCCCN(c1ccccc1)c1ccc(/C=C/c2cc(=O)oc3cc(C)ccc23)cc1`, the photoluminescence quantum yield (in ClC(Cl)Cl) was determined as 0.05.
For `C[Si](C)(C)[Si](C)(C)c1ccc2cc3ccccc3cc2c1`, the photoluminescence quantum yield is, setting by setting: (in C1CCCCC1) 0.22; (in CC#N) 0.08.
Where the note is “in ClCCl”, `C(=C\c1ccc(/C=C/c2ccc(N(c3ccccc3)c3ccccc3)cc2)cc1)/c1ccc(/C=C/c2ccc(N(c3ccccc3)c3ccccc3)cc2)cc1` returned a photoluminescence quantum yield of 0.84.
Take `CCCCn1c(-c2ccc(-c3ccc(-c4ccc(-c5n(CCCC)c6cc(C)ccc6[n+]5CCCC)cc4)cc3)cc2)[n+](CCCC)c2ccc(C)cc21`: where the note is “in O”, the photoluminescence quantum yield stood at 0.78.
For `COc1ccc(-c2cc3c(ccc(=O)n3C)s2)cc1`, the photoluminescence quantum yield is, setting by setting: (in CC#N) 0.42; (in ClCCl) 0.83.
In turn, `COc1ccc(-c2ccc(/C=C/c3ccncn3)cc2)cc1` registered a photoluminescence quantum yield (in ClCCl) of 0.14.
Under “in ClCCl”, `c1ccc(N2N=C(c3cccc4ccccc34)CC2c2ccc3ccc4cccc5ccc2c3c45)cc1` (centres undefined) had a photoluminescence quantum yield of 0.58.
For the molecule `CC1=CC(C)=[N+]2C1=C(c1ccc(I)cc1)c1c(C)cc(C)n1[B-]21Oc2ccccc2O1`, the photoluminescence quantum yield (in ClC(Cl)Cl) is 0.
Molecule `F[B-]1(F)OC(C#Cc2ccccc2)=CC(c2ccccc2)=[O+]1` had a photoluminescence quantum yield (in ClCCl) of 0.43.
With `COc1ccc(-n2cccc2)cc1`, the photoluminescence quantum yield reads like this: (in CC#N) 0.33; (in CCCCCC) 0.26.
With `c1ccc(-c2nc(-c3ccc(-c4nc(-c5ccccc5)c(-c5ccccc5)o4)cc3)oc2-c2ccccc2)cc1`, the photoluminescence quantum yield (in C1COCCO1) came to 0.63.
As to `c1ccc2c(-c3c4ccccc4c(-c4ccc(-n5c6ccccc6c6ccccc65)cc4)c4ccccc34)cccc2c1`, the photoluminescence quantum yield (in ClCCl) turned out to be 0.78.
Where the note is “in C1CCOC1”, `c1cc2ccc1-c1ccc(cc1)-c1sc(c3c1OCCO3)-c1ccc(cc1)-c1ccc(cc1)-c1sc(c3c1OCCO3)-c1ccc(cc1)-c1ccc(cc1)-c1sc-2c2c1OCCO2` had a photoluminescence quantum yield of 0.34.
In turn, `CCN(CC)c1ccc(C2=C3C(C)=CC(C)=[N+]3[B-](F)(F)n3c(C)cc(C)c32)cc1` registered a photoluminescence quantum yield (in CO) of 0.56.
For the molecule `CCCCC(CC)CN1C(=O)c2cc(Oc3ccc(OC)cc3)c3c4c(Oc5ccc(C(C)(C)C)cc5)cc5c6c(cc(Oc7ccc(C(C)(C)C)cc7)c(c7c(Oc8ccc(OC)cc8)cc(c2c37)C1=O)c64)C(=O)N(c1c(C(C)C)cccc1C(C)C)C5=O` (centres undefined), the photoluminescence quantum yield (in Cc1ccccc1) is 0.58.
Regarding `Cc1ccc2c(c1)c1cc(C)ccc1n2-c1cc(-c2nc(-c3ccccc3)nc(-c3ccccc3)n2)cc(-n2c3ccc(C)cc3c3cc(C)ccc32)c1-n1c2ccc(C)cc2c2cc(C)ccc21`, under “in O=P(c1ccccc1)(c1ccccc1)c1ccccc1Oc1ccccc1P(=O)(c1ccccc1)c1ccccc1”, the photoluminescence quantum yield came to 1.
Under “in ClCCl”, `Brc1ccc(N(c2ccc(/C=C/c3ccncn3)cc2)c2ccc(/C=C/c3ccncn3)cc2)cc1` yielded a photoluminescence quantum yield of 0.69.
For the setting “in CO”, `COc1ccc(O)c(C=O)c1` had a photoluminescence quantum yield of 0.03.
As to `CCCCn1c(=O)c2cc3ccc4cccc5ccc(c2c1=O)c3c45`, the photoluminescence quantum yield (in ClC(Cl)Cl) came out at 0.52.
Consider `Cc1ccc(N(c2ccc(C)cc2)c2cc(N(c3ccc(C)cc3)c3ccc(C)cc3)c3ccc4cc(C(C)(C)C)cc5ccc2c3c54)cc1`, for which the photoluminescence quantum yield (in ClCCl) worked out at 0.78.
On the same count and under the same terms, for `C[Si]1(C)c2ccc(-c3ccc(N(c4ccccc4)c4ccccc4)cc3)cc2C=Cc2cc(-c3ccc(N(c4ccccc4)c4ccccc4)cc3)ccc21` the value was 0.43.
As for `c1ccc(Nc2nc(Nc3ccccc3)nc(Nc3ccc4c5cccc6cccc(c7cccc3c74)c65)n2)cc1`, the photoluminescence quantum yield amounted to 0.52 (in C1COCCO1), 0.42 (in CC#N), 0.5 (in CCCCOCCCC) and 0.44 (in CCOC(C)=O).
Take `CCC1=C(C)C2=C(c3cc(C4=C5C(C)=C(CC)C(C)=[N+]5[B-](F)(F)n5c(C)c(CC)c(C)c54)cc(C4=C5C(C)=C(CC)C(C)=[N+]5[B-](F)(F)n5c(C)c(CC)c(C)c54)c3)c3c(C)c(CC)c(C)n3[B-](F)(F)[N+]2=C1C`: the photoluminescence quantum yield is 0.91 (in C1CCOC1); 0.62 (in CC#N); 0.73 (in CN(C)C=O); 0.95 (in Cc1ccccc1); 0.88 (in ClC(Cl)Cl).
Consider `CCN(CC)c1ccc2c(c1)oc(=O)c1c(-c3ccccc3C(=O)O)c3ccc(=[N+](CC)CC)cc-3oc12`, for which the photoluminescence quantum yield (in CCO) was found to be 0.21, the photoluminescence quantum yield (in ClC(Cl)Cl) worked out at 0.51 and the photoluminescence quantum yield (in O) stood at 0.01.
As for `Cc1cc2nc3cc(C)c(N)cc3[n+](-c3ccccc3)c2cc1N`, the photoluminescence quantum yield was 0.292 (in CCO) and 0.058 (in O).
The molecule `COc1ccc2c(c1)c1cc(OC)ccc1n2-c1ccc2c(c1)-c1cc(-n3c4ccc(OC)cc4c4cc(OC)ccc43)ccc1P2(=O)c1ccccc1` showed a photoluminescence quantum yield (in Cc1ccccc1) of 0.79 and a photoluminescence quantum yield (in c1ccc2c(c1)c1ccccc1n2-c1ccc(-c2ccc(-n3c4ccccc4c4ccccc43)cc2)cc1) of 0.78.
For `CN(C)c1ccc2nc(-c3ccc(C=C4C(=O)c5ccccc5C4=O)cc3)sc2c1`, the photoluminescence quantum yield came to 0.13 (in C1CCCCC1), 0 (in CC#N), 0 (in CO) and 0.35 (in ClC(Cl)Cl).
The molecule `Oc1ccc(-c2nc(-c3ccccc3)c(-c3ccccc3)[nH]2)cc1` displayed a photoluminescence quantum yield (in CO) of 0.18.
Regarding `CN1/C(=C/C=C(/C=C/C2=[N+](C)c3ccccc3C2(C)C)c2ccc(C(F)(F)F)cc2)C(C)(C)c2ccccc21`, the photoluminescence quantum yield is, setting by setting: (in CCO) 0.11; (in CO) 0.09; (in CS(C)=O) 0.23.
The molecule `N#CC1=CC(Br)=CC(C#N)=P1(c1ccccc1)c1ccccc1` returned a photoluminescence quantum yield (in ClC(Cl)Cl) of 0.52.
Consider `Cc1cccc(C)c1Nc1ccc(/C=C/c2ccc3ccccc3c2)cc1`, for which the photoluminescence quantum yield reads like this: (in CC#N) 0.08; (in CCCCCC) 0.2.
On to `C#Cc1ccc(-c2c3nc(c(-c4ccc(C#C)cc4)c4ccc([nH]4)c(-c4cc(C(C)(C)C)cc(C(C)(C)C)c4)c4cc(c(-c5cc(C(C)(C)C)cc(C(C)(C)C)c5)c5ccc2[nH]5)C=N4)C=C3)cc1`, for which, for the setting “in ClCCl”, the photoluminescence quantum yield was 0.0269.
For `CCOC(=O)CN1C(=O)C2=C(c3ccc(C#N)cc3)N(CC(=O)OCC)C(=O)C2=C1c1ccc(C#N)cc1`, the photoluminescence quantum yield runs as follows: (in CC#N) 0.32; (in CS(C)=O) 0.72; (in Cc1ccccc1) 0.29.
Turning to `O=C(O)c1ccccc1Nc1cccc(C(F)(F)F)c1`, the photoluminescence quantum yield came to 0.016 (in C1CCCCC1); 0.016 (in C1CCOC1); 0.026 (in C1COCCO1); 0.004 (in CC#N); 0.014 (in CCOC(C)=O); 0.006 (in CN(C)C=O). For the same molecule, the photoluminescence quantum yield was determined as 0.001 (in CO) and 0.022 (in ClC(Cl)Cl).
`CC1=c2c3c4cccc5cccc(c=3c(C)[n+]2[B-](F)(F)n2c(C)c3cc6c(-c7ccccc7)c7c(c(-c8ccccc8)c6cc3c21)-c1cccc2cccc-7c12)c54` gave a photoluminescence quantum yield (in ClCCl) of 0.7.
`CC1=[N+]2C(=C(c3ccccc3)c3c4c(c(C)n3[B-]2(F)F)CCc2ccccc2-4)C2=C1CCc1ccccc12`: where the note is “in CC#N”, the photoluminescence quantum yield was 0.1.
Where the note is “in Cc1ccccc1”, `Fc1c(-n2c3ccccc3c3ccccc32)c(F)c(-n2c3ccccc3c3ccccc32)c(-c2nnc(-c3ccccc3)o2)c1-n1c2ccccc2c2ccccc21` showed a photoluminescence quantum yield of 0.06.
Take `N#CC(C#N)=Cc1ccc(-c2ccc(N(c3ccccc3)c3ccccc3)cc2)o1`: the photoluminescence quantum yield (in ClC(Cl)Cl) is 0.19.
Molecule `CCOC(=O)c1c2c3c(ccc(Cl)c3c3cc4ccccc4cc13)N(C)C2=O` registered a photoluminescence quantum yield (in CC#N) of 0.41.
On to `C(=C\c1ncnc2ccccc12)/c1ccc(-c2ccc(N(c3ccccc3)c3ccccc3)cc2)cc1`, for which the photoluminescence quantum yield (in ClCCl) is 0.23.
The same measure, in the same setting: for `CCCCCCCCCCCCOc1cc2cc(N(C)C)ccc2cc1C=O` the value was 0.93.
